According to article PMC7459823, “Characterization of Five Novel Anti-MRSA Compounds Identified Using a Whole-Animal Caenorhabditis elegans/Galleria mellonella Sequential-Screening Approach” (Antibiotics, 2020):
Like-named read-outs stand apart in the source and are kept apart here.

Columns and labels:
Acinetobacter baumannii = assay: Broth microdilution MIC, Acinetobacter baumannii; format: cell-based; settings: read-out: MIC
Method: (§1) In vitro antibacterial activities were determined using the broth microdilution method. Assays were performed as described in Clinical and Laboratory Standards Institute protocols in triplicate using cation-adjusted Muller–Hinton broth (Becton Dickinson and Company, Franklin Lakes, NJ, USA) in 96-well plates with a total assay volume of 100 µL. Two-fold serial dilutions of test compounds were prepared over the concentration range of 1–64 µg/mL. The bacterial concentration was adjusted to OD600 = 0.06. […] A 10 µL aliquot from each well in the MIC assays was plated onto Muller–Hinton agar (Becton Dickinson and Company, Franklin Lakes, NJ, USA) and incubated overnight at 37 °C. The lowest concentration of compound for which no growth was observed on agar plates was reported as the minimal bactericidal concentration (MBC).

MRSA MW2 [1] = assay: Broth microdilution antibacterial susceptibility (MIC/MBC), MRSA MW2; format: cell-based, Staphylococcus aureus; settings: for MBC: MRSA MW2
Method: as §1

Cav3.1 T-type channels = tested on: Cav3.1 T-type channels; design: method as in PMID 14718587; settings: INS-1 cells; read-out: IC50 for inhibition of Cav3.1 T-type channels; cited from earlier work
Enterobactor aerogens = assay: Broth microdilution MIC, Enterobactor aerogens; format: cell-based; settings: Enterobactor aerogens; read-out: MIC
Method: as §1

[2] = tested on: MRSA-MW2 infection of C. elegans; assay: C. elegans–MRSA-MW2 high-throughput screen (Z-score, alive versus dead worms); format: in vivo, Caenorhabditis elegans; settings: screening concentration 2.86 µg/mL, hits Z > 2
Excerpt: The five compounds: (4,4′,4″-(4-propyl-[1H]-pyrazole-1,3,5-triyl)trisphenol, PPT; (1S,2S)-2-[2-[[3-(1H-benzimidazol-2-yl)propyl]methylamino]ethyl]-6-fluoro-1,2,3,4-tetrahydro-1-(1-methylethyl)-2- naphthalenyl cyclopropanecarboxylate dihydrochloride, NNC; 4,5,6,7-tetrabromobenzotriazole, TBB; 3-[2-[2-chloro-4-[3-(2,6-dichlorophenyl)-5-(1-methylethyl)-4-isoxazolyl]methoxy]phenyl] ethenyl] benzoic acid, GW4064; and N-(cyclopropylmethoxy)-3,4,5-trifluoro-2-[(4-iodo-2-methylphenyl)amino] benzamide, PD198306) were purchased from Tocris Bioscience at the following levels of purity: PPT: >99.7%, NNC: >98%, TBB: >99%, GW4064: >97%, and PD198306: 98.8%. […] Hits were identified based on Z-scores. Z-scores are calculated from the ratio of alive versus dead worms after treatment with test compounds and represents the number of standard deviations (SD) the test compound differs from the mean using the formula Z = (x − μ)/σ; where x is the raw sample score, μ is the mean of the population and σ is the standard deviation of the population. Samples with Z > 2σ are considered hits.

[3] = tested on: clinical S. aureus isolate BF3; assay: Broth microdilution MIC, clinical S. aureus isolate BF3; format: cell-based; settings: Staphylococcus aureus; BF3; read-out: MIC
Method: as §1

HepG2 = assay: MTT cytotoxicity, HepG2; settings: HepG2, 24 hr
Method: (§2) Mammalian cell lines HepG2 (hepatic cells), A549 (epithelial cells), and MKN-28 (gastric cells) were used to measure the anti-proliferative properties of test compounds, as described elsewhere [28]. Cells were grown in Dulbecco’s Modified Eagle Medium (DMEM) (Gibco, Waltham, MA, USA) supplemented with 10% Fetal Bovine Serum (FBS) (Gibco, Waltham, MA, USA) and 1% penicillin/streptomycin (Gibco, Waltham, MA, USA) and maintained at 37 °C in 5% CO2. After harvesting, the cells were suspended in DMEM and 100 µL was added to the wells of 96-well plates. The test compounds were serially diluted in serum and antibiotic free DMEM, added to the monolayer of cells, and incubated at 37 °C in 5% CO2 for 24 hr. Percentage survival was calculated by comparison to DMSO-treated vehicle controls. Assays were carried out in triplicate.

MRSA MW2 [4] = assay: Sytox green membrane permeabilization; format: cell-based, Staphylococcus aureus; settings: compounds at 64 µg/mL, monitored over 1 h
Method: To determine whether the compounds target bacterial membranes, MRSA MW2 was treated with the compounds and uptake of the membrane-impermeable DNA-binding fluorescent dye Sytox green was monitored over 1 h (Figure 4).
Sytox Green (Life Technologies, Needham, MA, USA) membrane permeabilization assays were performed as previously described. The experiments were carried out in duplicate in 96-well plates. Cells were grown to log phase and were harvested by centrifuging at 3700× g for 5 min. The cells were washed twice with PBS and resuspended to OD600 = 0.2, following which 5 µM Sytox green was added to the cells and the bacteria-dye mixture were incubated in the dark for 30 mins.
Cell suspensions (50 µL) were added to 50 µL of test compounds (64 µg/mL in PBS) and fluorescence intensity was measured (excitation 485 nm, emission 530 nm) periodically over 60 min.

Pseudomonas aeruginosa = assay: Broth microdilution MIC, Pseudomonas aeruginosa; format: cell-based; settings: read-out: MIC
Method: as §1

[5] = tested on: clinical S. aureus isolate BF1; assay: Broth microdilution MIC, clinical S. aureus isolate BF1; format: cell-based; settings: Staphylococcus aureus; BF1; read-out: MIC
Method: as §1

MKN-28 = assay: MTT cytotoxicity, MKN-28; settings: MKN-28, 24 hr
Method: as §2

Klebsiella pneumoniae = assay: Broth microdilution MIC, Klebsiella pneumoniae; format: cell-based; settings: read-out: MIC
Method: as §1

MRSA-MW2 = assay: Checkerboard synergy assay (FIC index); format: cell-based, Staphylococcus aureus; settings: synergy FIC ≤ 0.5
Method: The combination of two antibiotics with different modes of action can reduce bacterial resistance and sometimes even restore clinical efficacy of an antibiotic that has lost effectiveness. The five compounds were tested against MRSA-MW2 in the presence of five clinical antibiotics from different classes (i.e., polymyxin B, gentamycin, erythromycin, doxycycline, and oxacillin).
Antibacterial synergy for combinations of the compounds with each other and with clinical antibiotics (doxycycline, gentamicin, polymyxin-B, oxacillin, and erythromycin) was measured using checkerboard assays. In short, Cultures of MRSA-MW2 were adjusted to OD600 = 0.06 and one compound was arrayed horizontally and other vertically in 96 well plates. The assays were carried out in triplicate, exactly as described for the antibacterial susceptibility assays. The inhibitory effects of compound combinations were evaluated using the Fractional Inhibitory Concentration (FIC) index, derived from the formula:FIC index = FICA + FICB = [A]/MICA + [B]/MICB
MIC of substance A tested in combination /MIC of substance A tested alone + MIC of substance B tested in combination/MIC of substance B tested alone. Synergy is indicated when FIC ≤ 0.5, indifference when 0.5 ≤ FIC ≤ 4, and antagonism when FIC > 4. Experiments were performed in duplicate and report the average FIC index.

Enterococcus faecium = assay: Broth microdilution MIC, Enterococcus faecium; format: cell-based; settings: read-out: MIC
Method: as §1

[6] = tested on: clinical S. aureus isolate BF2; assay: Broth microdilution MIC, clinical S. aureus isolate BF2; format: cell-based; settings: Staphylococcus aureus; BF2; read-out: MIC
Method: as §1

[7] = tested on: MRSA MW2 infection of Galleria mellonella larvae; assay: G. mellonella–MRSA survival assay; format: in vivo; settings: larvae infected with MRSA MW2 5 × 10^5 CFU, compound 10 mg/kg 2 h after infection, monitored 120 h; untreated 1 day
Method: Larvae were infected with MRSA MW2 (5 × 10^5 CFU) in the left rear proleg, and after two hours, the compounds were introduced separately at 10 mg/kg into the right rear proleg and larvae survival was monitored for 120 h.
Assays were performed as described previously. Briefly, sixteen randomly selected G. mellonella larvae (Vanderhorst, Inc., St. Mary’s, OH, USA) between 300–350 mg were used for each test group. MRSA-MW2 was grown in Tryptic Soy Broth (TSB), washed with phosphate buffered saline (PBS, pH = 7.4), and diluted to OD600 = 0.3 before inoculation into G. mellonella larvae. A 10-μL inoculum was injected into the last left proleg using a 10-μL Hamilton syringe. After 2 h, compounds were administered into the last right proleg and larvae were incubated at 37 °C. G.mellonella survival was monitored for 120 h, and death was confirmed when there was no response. Killing curves and differences in survival were analyzed by the Kaplan–Meier method using GraphPad Prism version 8 (GraphPad Software, La Jolla, CA, USA). Statistical analysis (Kruskal–Wallis test) was carried out using the same program.

[8] = tested on: clinical S. aureus isolate BF4; assay: Broth microdilution MIC, clinical S. aureus isolate BF4; format: cell-based; settings: Staphylococcus aureus; BF4; read-out: MIC
Method: as §1

A549 = assay: MTT cytotoxicity, A549; settings: A549, 24 hr
Method: as §2

HVA currents = tested on: HVA currents; design: method as in PMID 14718587; settings: INS-1 cells; read-out: IC50 for inhibition of HVA currents; cited from earlier work

Question: Which results are given for `CC(C)[C@H]1c2ccc(F)cc2CC[C@@]1(CCN(C)CCCc1nc2ccccc2[nH]1)OC(=O)C1CC1.Cl.Cl` [NNC, (1S,2S)-2-[2-[[3-(1H-Benzimidazol-2-yl)propyl]methylamino]ethyl]-6-fluoro-1,2,3,4-tetrahydro-1-(1-methylethyl)-2-naphthalenyl cyclopropanecarboxylate dihydrochloride]?
Answer: MIC (Acinetobacter baumannii): > 64 µg/mL; MBC (MRSA MW2 [1]): >64 µg/mL; MIC (MRSA MW2 [1]; Staphylococcus aureus, MRSA MW2, 18 h, 37 °C, read-out: MIC): 8 µg/mL; MBC (MRSA MW2 [1]; Staphylococcus aureus, read-out: MBC): > 64 µg/mL; IC50 (Cav3.1 T-type channels): 6.8 µM; MIC (Enterobactor aerogens): > 64 µg/mL; Z-Score [2]: 5.83; MIC [3]: 4 µg/mL; Eukaryotic cell cytotoxicity (HepG2): 2 µg/mL; cellular fluorescence (Sytox green uptake) (MRSA MW2 [4]): increases in cellular fluorescence; MIC (Pseudomonas aeruginosa): > 64 µg/mL; MIC [5]: 4 µg/mL; Eukaryotic cell cytotoxicity (MKN-28): 8 µg/mL; MIC (Klebsiella pneumoniae): > 64 µg/mL; Fractional Inhibitory Concentration (FIC) Index (MRSA-MW2; with Doxycycline): 0.75; Fractional Inhibitory Concentration (FIC) Index (MRSA-MW2; with Erythromycin): 1.0; Fractional Inhibitory Concentration (FIC) Index (MRSA-MW2; with Gentamycin): 0.75; Fractional Inhibitory Concentration (FIC) Index (MRSA-MW2; with Oxacillin): 2.0; Fractional Inhibitory Concentration (FIC) Index (MRSA-MW2; with Polymyxin B): 0.5; MIC (Enterococcus faecium): 8 µg/mL; MIC [6]: 2 µg/mL; median post-infection survival [7]: 2 days; MIC [8]: 4 µg/mL; Eukaryotic cell cytotoxicity (A549): 16 µg/mL; IC50 (HVA currents): > 100 µM
